Test results as given in ChEMBL document CHEMBL4325862, “Identification of novel quinazoline derivatives as potent antiplasmodial agents” (Eur J Med Chem, 2019).

How the values were obtained:
[1] = biological target: T1, Histone-lysine N-methyltransferase EHMT2 (Homo sapiens, UniProt Q96KQ7); experiment: Inhibition of recombinant human N-terminal GST-fused G9a (786 to 1210 residues) expressed in Escherichia coli using biotinylated H3 (1 to 21 residues) as substrate measured after 1 hr in presence of 3H-Adomet by filter binding assay
T1 sequence (Q96KQ7 whole entry): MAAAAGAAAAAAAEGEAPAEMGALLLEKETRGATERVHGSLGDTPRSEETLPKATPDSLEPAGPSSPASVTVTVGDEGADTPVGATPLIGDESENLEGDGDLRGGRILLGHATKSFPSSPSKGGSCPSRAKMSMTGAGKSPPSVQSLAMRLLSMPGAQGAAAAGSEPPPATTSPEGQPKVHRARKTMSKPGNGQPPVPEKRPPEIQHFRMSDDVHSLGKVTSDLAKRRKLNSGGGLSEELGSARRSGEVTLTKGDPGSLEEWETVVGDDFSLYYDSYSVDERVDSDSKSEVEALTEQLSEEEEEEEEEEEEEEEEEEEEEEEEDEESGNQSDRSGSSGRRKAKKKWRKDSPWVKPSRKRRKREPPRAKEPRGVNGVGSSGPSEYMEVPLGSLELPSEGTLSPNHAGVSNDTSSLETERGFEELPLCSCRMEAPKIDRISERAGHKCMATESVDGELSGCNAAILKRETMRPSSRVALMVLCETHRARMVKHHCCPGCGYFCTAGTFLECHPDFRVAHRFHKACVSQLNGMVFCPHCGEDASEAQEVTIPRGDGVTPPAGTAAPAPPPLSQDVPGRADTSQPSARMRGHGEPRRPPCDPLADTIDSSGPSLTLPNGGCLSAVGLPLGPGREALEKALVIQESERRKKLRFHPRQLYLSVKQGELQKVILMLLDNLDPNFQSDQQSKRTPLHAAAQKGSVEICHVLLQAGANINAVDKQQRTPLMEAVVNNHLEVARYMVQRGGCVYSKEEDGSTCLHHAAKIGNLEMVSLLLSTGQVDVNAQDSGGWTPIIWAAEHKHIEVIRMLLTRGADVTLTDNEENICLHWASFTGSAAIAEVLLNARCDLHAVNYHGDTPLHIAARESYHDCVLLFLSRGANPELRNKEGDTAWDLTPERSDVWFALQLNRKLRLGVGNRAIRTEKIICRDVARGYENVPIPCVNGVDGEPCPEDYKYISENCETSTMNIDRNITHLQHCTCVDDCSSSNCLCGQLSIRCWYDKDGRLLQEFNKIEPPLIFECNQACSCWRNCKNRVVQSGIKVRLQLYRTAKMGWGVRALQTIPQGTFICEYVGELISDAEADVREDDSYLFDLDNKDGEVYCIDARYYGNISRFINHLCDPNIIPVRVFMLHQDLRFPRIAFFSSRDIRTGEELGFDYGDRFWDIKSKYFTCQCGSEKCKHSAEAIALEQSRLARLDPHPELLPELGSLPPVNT

[2] = biological target: T2, DNA (cytosine-5)-methyltransferase 3A (Homo sapiens, UniProt Q9Y6K1); experiment: Inhibition of recombinant human DNMT3a C-terminal catalytic domain (623 to 908 residues) using 5'-biotinylated/3'-FAM-oligonucleotide as substrate measured after 1 hr in presence of Adomet by fluorescence assay
Plasmodium falciparum [3] = experiment: Antiplasmodial activity against asynchronous form of Plasmodium falciparum 3D7 infected in human erythrocytes assessed as parasite growth inhibition at 10 uM after 48 hrs by SYBR green1 staining based flow cytometry relative to control; format: functional; settings: 3D7, 48 h
[4] = biological target: DNA (cytosine-5)-methyltransferase 1 (Homo sapiens, UniProt P26358); experiment: Inhibition of recombinant human DNMT1 using biotinylated DNA duplex as substrate measured after 2 hrs in presence of Adomet/[methyl-3H]Adomet by topcount method
Plasmodium falciparum [5] = experiment: Antiplasmodial activity against asynchronous form of Plasmodium falciparum 3D7 infected in human erythrocytes assessed as parasite growth inhibition after 48 hrs by SYBR green1 staining based flow cytometry; format: functional, organism-based; settings: 3D7, 48 h
[6] = Cytotoxicity against mouse spleen cells; format: cell-based
Plasmodium falciparum [7] = experiment: Antiplasmodial activity against Plasmodium falciparum Dd2 infected in human erythrocytes assessed as reduction in [3H]-hypoxanthine incorporation measured after 48 hrs by microbeta liquid scintillation counting method; format: functional, organism-based
HFF = experiment: Cytotoxicity against HFF; format: cell-based; settings: Homo sapiens
Plasmodium falciparum [8] = experiment: Antiplasmodial activity against asynchronous form of Plasmodium falciparum W2 infected in human erythrocytes assessed as parasite growth inhibition after 48 hrs by SYBR green1 staining based flow cytometry; format: functional, organism-based; settings: W2, 48 h
[9] = Selectivity index, ratio of IC50 for mouse spleen cells to IC50 for asynchronous form of Plasmodium falciparum 3D7 infected in human erythrocytes; format: toxicity, cell-based; settings: read-out: Ratio IC50
Histone deacetylase 4 = Histone deacetylase 4 (Homo sapiens, UniProt P56524); experiment: Inhibition of recombinant human HDAC4 using Boc-Lys(trifluoroacetyl)-AMC as substrate by homogeneous fluorescence release assay
Histone deacetylase 1 = Histone deacetylase 1 (Homo sapiens, UniProt Q13547); experiment: Inhibition of recombinant human HDAC1 using RHK-K(Ac) as substrate by homogeneous fluorescence release assay
[10] = biological target: T3, Protein deacetylase HDAC6 (Homo sapiens, UniProt Q9UBN7); experiment: Inhibition of recombinant human HDAC6 using RHK-K(Ac) as substrate by homogeneous fluorescence release assay
T3 sequence (Q9UBN7 whole entry): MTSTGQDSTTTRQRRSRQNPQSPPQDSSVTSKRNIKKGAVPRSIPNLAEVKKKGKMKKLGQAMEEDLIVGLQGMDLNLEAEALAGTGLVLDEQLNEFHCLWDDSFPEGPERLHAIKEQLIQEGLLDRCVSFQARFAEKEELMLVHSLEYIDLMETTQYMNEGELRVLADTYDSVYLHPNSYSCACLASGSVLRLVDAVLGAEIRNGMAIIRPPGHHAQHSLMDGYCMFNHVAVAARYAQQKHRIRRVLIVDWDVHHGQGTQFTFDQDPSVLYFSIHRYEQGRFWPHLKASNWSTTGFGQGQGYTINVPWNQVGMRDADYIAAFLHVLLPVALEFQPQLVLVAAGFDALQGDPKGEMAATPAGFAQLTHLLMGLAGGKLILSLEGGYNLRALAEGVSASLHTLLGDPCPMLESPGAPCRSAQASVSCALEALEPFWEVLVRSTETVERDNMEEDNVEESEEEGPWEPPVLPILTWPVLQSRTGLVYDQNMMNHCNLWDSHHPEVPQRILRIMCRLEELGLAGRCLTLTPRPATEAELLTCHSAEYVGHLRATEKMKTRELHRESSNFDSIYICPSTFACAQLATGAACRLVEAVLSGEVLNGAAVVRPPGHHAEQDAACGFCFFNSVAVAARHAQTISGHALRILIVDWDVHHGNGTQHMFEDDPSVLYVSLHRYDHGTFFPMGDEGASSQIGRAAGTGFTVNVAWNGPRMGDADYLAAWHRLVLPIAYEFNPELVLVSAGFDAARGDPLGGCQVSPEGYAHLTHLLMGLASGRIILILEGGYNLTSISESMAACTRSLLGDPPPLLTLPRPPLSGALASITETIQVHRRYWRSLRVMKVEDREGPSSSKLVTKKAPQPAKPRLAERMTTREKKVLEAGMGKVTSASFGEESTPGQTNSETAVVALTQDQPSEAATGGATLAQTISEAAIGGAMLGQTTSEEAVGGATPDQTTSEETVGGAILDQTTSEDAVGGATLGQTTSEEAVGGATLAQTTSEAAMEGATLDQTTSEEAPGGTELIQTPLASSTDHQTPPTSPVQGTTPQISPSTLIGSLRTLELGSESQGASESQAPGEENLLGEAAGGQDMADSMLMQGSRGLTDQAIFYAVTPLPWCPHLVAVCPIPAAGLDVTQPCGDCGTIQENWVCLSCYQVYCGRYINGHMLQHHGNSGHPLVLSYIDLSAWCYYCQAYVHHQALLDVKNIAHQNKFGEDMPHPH

[11] = biological target: T2, DNA (cytosine-5)-methyltransferase 3A; experiment: Inhibition of recombinant human DNMT3a C-terminal catalytic domain (623 to 908 residues) at 10 uM using 5'-biotinylated/3'-FAM-oligonucleotide as substrate measured after 1 hr in presence of Adomet by fluorescence assay relative to control

Sequence of DNA (cytosine-5)-methyltransferase 1 (P26358 whole entry): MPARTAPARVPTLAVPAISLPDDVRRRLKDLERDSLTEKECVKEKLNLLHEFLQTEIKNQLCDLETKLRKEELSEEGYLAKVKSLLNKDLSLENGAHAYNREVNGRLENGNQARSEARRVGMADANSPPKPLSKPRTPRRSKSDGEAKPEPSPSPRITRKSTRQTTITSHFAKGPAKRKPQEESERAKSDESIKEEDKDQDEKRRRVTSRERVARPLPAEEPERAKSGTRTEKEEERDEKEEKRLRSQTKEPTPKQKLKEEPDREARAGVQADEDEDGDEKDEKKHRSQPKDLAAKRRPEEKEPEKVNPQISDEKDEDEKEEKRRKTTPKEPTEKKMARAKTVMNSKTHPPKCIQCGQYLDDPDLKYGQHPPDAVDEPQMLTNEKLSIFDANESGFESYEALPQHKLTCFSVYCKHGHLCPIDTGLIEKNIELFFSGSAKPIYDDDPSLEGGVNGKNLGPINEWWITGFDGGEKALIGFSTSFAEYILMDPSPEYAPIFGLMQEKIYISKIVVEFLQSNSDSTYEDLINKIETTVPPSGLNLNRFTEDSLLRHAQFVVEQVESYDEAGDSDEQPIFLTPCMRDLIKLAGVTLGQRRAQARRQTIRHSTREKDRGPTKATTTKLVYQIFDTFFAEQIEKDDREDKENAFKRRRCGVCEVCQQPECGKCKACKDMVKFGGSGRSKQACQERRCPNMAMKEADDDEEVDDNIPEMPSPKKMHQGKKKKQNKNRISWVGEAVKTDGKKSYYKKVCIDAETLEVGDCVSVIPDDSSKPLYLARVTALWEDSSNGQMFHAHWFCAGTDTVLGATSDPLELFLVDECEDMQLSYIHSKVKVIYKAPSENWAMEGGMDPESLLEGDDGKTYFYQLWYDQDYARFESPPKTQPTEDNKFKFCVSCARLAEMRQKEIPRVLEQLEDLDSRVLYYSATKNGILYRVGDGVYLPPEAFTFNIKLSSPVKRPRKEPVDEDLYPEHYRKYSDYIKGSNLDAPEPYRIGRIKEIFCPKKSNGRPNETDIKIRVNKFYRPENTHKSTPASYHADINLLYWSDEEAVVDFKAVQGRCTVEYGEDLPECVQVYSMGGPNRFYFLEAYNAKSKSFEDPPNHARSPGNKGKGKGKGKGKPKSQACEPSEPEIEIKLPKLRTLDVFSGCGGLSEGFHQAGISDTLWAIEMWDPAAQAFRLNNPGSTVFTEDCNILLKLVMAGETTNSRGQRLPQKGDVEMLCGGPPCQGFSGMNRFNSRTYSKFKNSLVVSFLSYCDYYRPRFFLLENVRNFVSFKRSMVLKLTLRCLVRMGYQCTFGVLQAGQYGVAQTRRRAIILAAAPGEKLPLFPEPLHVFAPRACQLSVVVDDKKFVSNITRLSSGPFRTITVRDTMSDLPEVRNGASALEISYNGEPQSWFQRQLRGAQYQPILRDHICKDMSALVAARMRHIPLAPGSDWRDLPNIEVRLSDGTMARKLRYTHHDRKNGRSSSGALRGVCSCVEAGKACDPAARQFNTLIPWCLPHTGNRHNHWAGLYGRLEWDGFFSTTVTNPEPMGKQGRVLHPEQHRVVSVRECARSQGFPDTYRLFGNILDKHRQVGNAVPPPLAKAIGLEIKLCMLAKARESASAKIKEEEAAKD
T2 sequence (Q9Y6K1 whole entry, looked up, the tested form may be a part): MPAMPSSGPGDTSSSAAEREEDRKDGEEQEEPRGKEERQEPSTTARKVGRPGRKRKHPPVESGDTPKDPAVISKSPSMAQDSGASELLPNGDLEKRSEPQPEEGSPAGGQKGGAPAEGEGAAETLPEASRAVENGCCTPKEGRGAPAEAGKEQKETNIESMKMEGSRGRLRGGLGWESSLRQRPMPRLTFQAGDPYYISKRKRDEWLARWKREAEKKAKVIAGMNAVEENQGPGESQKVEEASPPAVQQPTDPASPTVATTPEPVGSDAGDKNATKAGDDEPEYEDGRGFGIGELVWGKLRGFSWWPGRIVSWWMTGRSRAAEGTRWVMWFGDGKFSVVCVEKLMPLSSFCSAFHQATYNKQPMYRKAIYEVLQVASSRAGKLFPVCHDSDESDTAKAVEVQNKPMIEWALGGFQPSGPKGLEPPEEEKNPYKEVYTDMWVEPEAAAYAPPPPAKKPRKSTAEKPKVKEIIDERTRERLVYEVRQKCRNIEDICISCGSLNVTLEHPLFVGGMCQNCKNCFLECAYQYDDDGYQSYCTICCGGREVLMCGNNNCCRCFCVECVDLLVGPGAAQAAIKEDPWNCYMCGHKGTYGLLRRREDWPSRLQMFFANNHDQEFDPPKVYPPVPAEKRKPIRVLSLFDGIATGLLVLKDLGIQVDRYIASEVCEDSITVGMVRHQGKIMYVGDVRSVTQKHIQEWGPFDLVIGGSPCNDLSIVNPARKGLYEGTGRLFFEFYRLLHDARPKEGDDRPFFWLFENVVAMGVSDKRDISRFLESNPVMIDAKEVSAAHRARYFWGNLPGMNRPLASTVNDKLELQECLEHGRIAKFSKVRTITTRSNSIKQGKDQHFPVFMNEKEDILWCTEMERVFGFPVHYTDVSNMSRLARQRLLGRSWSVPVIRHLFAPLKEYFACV
Sequence of Histone deacetylase 1 (Q13547 whole entry): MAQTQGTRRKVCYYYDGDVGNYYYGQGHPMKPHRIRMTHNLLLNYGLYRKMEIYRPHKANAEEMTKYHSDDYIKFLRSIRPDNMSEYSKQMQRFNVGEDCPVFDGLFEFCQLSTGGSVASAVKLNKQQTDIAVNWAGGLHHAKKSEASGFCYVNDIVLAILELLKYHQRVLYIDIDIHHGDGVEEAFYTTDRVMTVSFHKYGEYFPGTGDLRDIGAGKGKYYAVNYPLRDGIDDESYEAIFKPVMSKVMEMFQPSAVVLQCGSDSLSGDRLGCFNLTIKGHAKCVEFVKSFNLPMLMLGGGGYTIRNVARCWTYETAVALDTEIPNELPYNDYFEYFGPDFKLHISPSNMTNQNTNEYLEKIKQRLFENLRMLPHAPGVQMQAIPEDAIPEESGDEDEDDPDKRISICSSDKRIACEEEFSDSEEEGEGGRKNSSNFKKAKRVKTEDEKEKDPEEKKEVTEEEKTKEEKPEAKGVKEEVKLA
Sequence of Histone deacetylase 4 (P56524 whole entry): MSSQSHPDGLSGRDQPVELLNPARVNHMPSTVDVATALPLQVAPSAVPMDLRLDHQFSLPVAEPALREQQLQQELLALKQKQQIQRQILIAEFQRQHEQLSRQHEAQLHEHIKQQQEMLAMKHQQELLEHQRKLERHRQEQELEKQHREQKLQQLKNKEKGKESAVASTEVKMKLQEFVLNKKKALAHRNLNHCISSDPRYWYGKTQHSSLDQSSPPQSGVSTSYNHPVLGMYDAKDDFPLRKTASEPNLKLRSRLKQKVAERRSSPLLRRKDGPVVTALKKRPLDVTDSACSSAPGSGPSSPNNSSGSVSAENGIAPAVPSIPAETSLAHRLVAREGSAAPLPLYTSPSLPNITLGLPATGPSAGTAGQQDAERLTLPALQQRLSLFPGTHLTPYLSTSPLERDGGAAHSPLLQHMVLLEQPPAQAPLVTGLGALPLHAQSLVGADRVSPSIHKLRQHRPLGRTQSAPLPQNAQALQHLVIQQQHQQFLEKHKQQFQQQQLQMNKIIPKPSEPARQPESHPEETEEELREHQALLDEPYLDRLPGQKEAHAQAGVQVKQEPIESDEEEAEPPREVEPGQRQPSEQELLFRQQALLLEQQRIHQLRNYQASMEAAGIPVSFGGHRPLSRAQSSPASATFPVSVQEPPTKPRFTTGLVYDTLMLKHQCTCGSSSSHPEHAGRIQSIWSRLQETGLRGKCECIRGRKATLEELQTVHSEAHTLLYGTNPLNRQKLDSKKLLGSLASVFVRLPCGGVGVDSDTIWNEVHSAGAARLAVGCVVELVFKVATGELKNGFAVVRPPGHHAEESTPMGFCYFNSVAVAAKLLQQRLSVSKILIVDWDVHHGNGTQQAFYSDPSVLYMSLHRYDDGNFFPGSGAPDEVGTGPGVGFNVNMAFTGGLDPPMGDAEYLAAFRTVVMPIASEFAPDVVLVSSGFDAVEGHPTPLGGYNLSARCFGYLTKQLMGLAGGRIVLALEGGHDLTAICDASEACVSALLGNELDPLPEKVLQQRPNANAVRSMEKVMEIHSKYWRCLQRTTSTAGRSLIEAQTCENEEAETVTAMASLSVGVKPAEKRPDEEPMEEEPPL

## COc1ccc(CCN2CCC(Nc3nc(NCc4ccc(F)cc4)nc4ccccc34)CC2)cc1
[1]
  EC50: 50.9 µM
[2]
  EC50: 4.8 µM
Plasmodium falciparum [3]
  inhibition at 10 µM: 100%
[4]
  EC50: > 100 µM
Plasmodium falciparum [5]
  IC50: 33.6 nM

## c1ccc(CCN2CCC(Nc3nc(N4CCN(c5ccccc5)CC4)nc4ccccc34)CC2)cc1
[2]
  EC50: 5.4 µM
Plasmodium falciparum [3]
  inhibition at 10 µM: 100%
[4]
  EC50: > 100 µM
Plasmodium falciparum [5]
  IC50: 98.9 nM

## COc1ccc(CCN2CCC(Nc3nc(NCc4ccc(F)cc4)nc4cc(OC)c(OC)cc34)CC2)cc1
[1]
  EC50: 31.8 µM
[2]
  EC50: 5.2 µM
Plasmodium falciparum [3]
  inhibition at 10 µM: 100%
[4]
  EC50: > 100 µM
Plasmodium falciparum [5]
  IC50: 18 nM
[6]
  IC50: 800 nM
Plasmodium falciparum [7]
  IC50: 6.1 nM
HFF
  IC50: 3.21 µM
Plasmodium falciparum [8]
  IC50: 25.8 nM
[9]
  selectivity ratio: 44

## O=C(/C=C/c1ccc(NC(=O)Cc2cccc3ccccc23)cn1)NO
Plasmodium falciparum [3]
  inhibition at 10 µM: 96.8 to 97.9%
Histone deacetylase 4
  IC50: 2.7 µM
Plasmodium falciparum [5]
  IC50: 10.2 to 21.1 nM
[6]
  IC50: 120 nM
Plasmodium falciparum [7]
  IC50: 13.5 nM
HFF
  IC50: > 10 µM
Plasmodium falciparum [8]
  IC50: 15.3 nM
[9]
  selectivity ratio: 9
Histone deacetylase 1
  IC50: 100 nM
[10]
  IC50: 15 nM

## O=C(CCCCCSc1nc(-c2ccc(-c3ccccc3)cc2)cc(=O)[nH]1)NO
Plasmodium falciparum [3]
  inhibition at 10 µM: 97.4%
Histone deacetylase 4
  IC50: > 50 µM
Plasmodium falciparum [5]
  IC50: 50.9 nM
Histone deacetylase 1
  IC50: 100 nM
[10]
  IC50: 9 nM

## COc1ccc2nc(N3CCN(c4ccccc4)CC3)nc(NC3CCN(Cc4ccccc4)CC3)c2c1
[2]
  EC50: 5.4 µM
Plasmodium falciparum [3]
  inhibition at 10 µM: 100%
[4]
  EC50: > 100 µM
Plasmodium falciparum [5]
  IC50: 52.5 nM

## COc1cc2c(NCCNc3cccc4ccccc34)nc(N3CCN(c4ccccc4)CC3)nc2cc1OCc1ccccc1
Plasmodium falciparum [3]
  inhibition at 10 µM: 99.6%
Plasmodium falciparum [5]
  IC50: 56.2 nM
[11]
  inhibition: 15%

## O=C(CCCCCSc1nc(-c2ccc3ccccc3c2)cc(=O)[nH]1)NO
Plasmodium falciparum [3]
  inhibition at 10 µM: 97.4%
Histone deacetylase 4
  IC50: > 50 µM
Plasmodium falciparum [5]
  IC50: 79.4 nM
Histone deacetylase 1
  IC50: 1000 nM
[10]
  IC50: 17 nM

## COc1cc2c(NC3CCN(C(C)C)CC3)nc(C3CCCCC3)nc2cc1OCCCN1CCCC1
Plasmodium falciparum [3]
  inhibition at 10 µM: 100%
Plasmodium falciparum [5]
  IC50: 67.9 to 68.7 nM
[6]
  IC50: 1440 nM
Plasmodium falciparum [7]
  IC50: 16.8 nM
HFF
  IC50: 2.29 µM
Plasmodium falciparum [8]
  IC50: 38.5 nM
[9]
  selectivity ratio: 21

## c1ccc(CCCN2CCC(Nc3nc(N4CCN(c5ccccc5)CC4)nc4ccccc34)CC2)cc1
[2]
  EC50: 5.1 µM
Plasmodium falciparum [3]
  inhibition at 10 µM: 100%
[4]
  EC50: > 100 µM
Plasmodium falciparum [5]
  IC50: 75.1 nM

## COc1cc2nc(N3CCCN(C)CC3)nc(NC3CCN(Cc4ccccc4)CC3)c2cc1OC
Plasmodium falciparum [3]
  inhibition at 10 µM: 100%
Plasmodium falciparum [5]
  IC50: 20.8 to 23.7 nM
[6]
  IC50: 555 nM
Plasmodium falciparum [7]
  IC50: 9.7 nM
HFF
  IC50: 5 µM
Plasmodium falciparum [8]
  IC50: 16.7 nM
[9]
  selectivity ratio: 23

## O=C(Cc1ccccc1)Nc1ccc(C(=O)NO)nc1
Plasmodium falciparum [3]
  inhibition at 10 µM: 97.8%
Histone deacetylase 4
  IC50: 11 µM
Plasmodium falciparum [5]
  IC50: > 1000 nM
Histone deacetylase 1
  IC50: 200 nM
[10]
  IC50: 37 nM

## O=C(CCCCSc1nc(-c2ccc3ccccc3c2)cc(=O)[nH]1)NO
Plasmodium falciparum [3]
  inhibition at 10 µM: 97.9%
Histone deacetylase 4
  IC50: > 50 µM
Plasmodium falciparum [5]
  IC50: 25.2 nM
Histone deacetylase 1
  IC50: 1700 nM
[10]
  IC50: 12 nM

## O=C(Cc1cccc2ccccc12)Nc1ccc(C(=O)NO)nc1
Plasmodium falciparum [3]
  inhibition at 10 µM: 97.9%
Histone deacetylase 4
  IC50: > 50 µM
Plasmodium falciparum [5]
  IC50: > 1000 nM
Histone deacetylase 1
  IC50: 300 nM
[10]
  IC50: 26 nM

## COc1ccc2c(NC3CCN(Cc4ccccc4)CC3)nc(N3CCN(c4ccccc4)CC3)nc2c1
[2]
  EC50: 4.6 µM
Plasmodium falciparum [3]
  inhibition at 10 µM: 100%
[4]
  EC50: > 100 µM
Plasmodium falciparum [5]
  IC50: 83 nM

## c1ccc(N2CCN(c3nc(NC4CCN(Cc5ccc6ccccc6c5)CC4)c4ccccc4n3)CC2)cc1
[2]
  EC50: 2.4 µM
Plasmodium falciparum [3]
  inhibition at 10 µM: 100%
[4]
  EC50: > 100 µM
Plasmodium falciparum [5]
  IC50: 138 nM

## COc1cc2nc(N3CCN(c4ccccc4)CC3)nc(NC3CCN(Cc4ccccc4)CC3)c2cc1OC
[2]
  EC50: 5.4 µM
Plasmodium falciparum [3]
  inhibition at 10 µM: 100%
[4]
  EC50: > 100 µM
Plasmodium falciparum [5]
  IC50: 37.8 nM
